Data: patent US20240019437A1, “METHODS FOR THE DIAGNOSIS AND THE TREATMENT OF GRAFT-VERSUS-HOST DISEASE” (INSERM (INSTITUT NATIONAL DE LA SANTÉ ET DE LA RECHERCHE …, priority 2020, published 2024)

Biological target: T1, CD73 (Homo sapiens, UniProt P21589)
T1 construct: Eight different CD73-expressing DP8α TREG clones were all separately co-cultured; endogenous in cells; host or cells: CD73-expressing DP8α Treg clones (human T cell clones)
T1 sequence (P21589 27-549): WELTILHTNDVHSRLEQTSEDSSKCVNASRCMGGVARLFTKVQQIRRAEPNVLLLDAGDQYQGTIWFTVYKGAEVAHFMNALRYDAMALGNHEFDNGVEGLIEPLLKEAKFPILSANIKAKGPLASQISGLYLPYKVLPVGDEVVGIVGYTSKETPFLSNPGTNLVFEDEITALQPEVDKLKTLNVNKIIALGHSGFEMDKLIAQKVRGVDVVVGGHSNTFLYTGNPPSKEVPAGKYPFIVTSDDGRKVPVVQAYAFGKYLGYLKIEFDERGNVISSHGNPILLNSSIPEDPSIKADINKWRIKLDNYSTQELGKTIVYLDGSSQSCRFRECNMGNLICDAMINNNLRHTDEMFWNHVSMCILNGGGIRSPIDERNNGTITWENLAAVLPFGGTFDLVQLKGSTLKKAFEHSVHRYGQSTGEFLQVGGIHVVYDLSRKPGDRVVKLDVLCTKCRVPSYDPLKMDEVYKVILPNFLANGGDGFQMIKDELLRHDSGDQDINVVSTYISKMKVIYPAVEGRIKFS
Experiment: Co-culture of CD73-expressing DP8α TREG clones with VPD-stained CD4+ T cells, with or without CD73 inhibitors; proliferation as percentage of VPD LOW CD4+ T cells
Assay type: cell-based
Conditions: 1:1 co-culture, proliferation measured 6 days later; three concentrations per inhibitor; compared to no treatment

SMILES: Nc1ncnc2c1ncn2[C@@H]1O[C@H](COP(=O)([O-])CP(=O)(O)O)[C@@H](O)[C@H]1O.[Na+] [Adenosine 5′-(α,β-methylene)diphosphate sodium salt]
- Effect on suppressive function of CD73-expressing DP8α TREG clones (inhibition of CD4+ T cell proliferation): drastically impaired the suppressive function
